Laboratory results taken from article PMC12920294, “Optimizing uPAR-targeting radiopeptides for improved tissue distribution: progress towards radionuclide therapy” (European Journal of Nuclear Medicine and Molecular Imaging, 2025).

Legend:
[1] = system: HEK-uPAR xenograft-bearing mice; conditions: mouse, in vivo
Experimental: (§1) HEK-uPAR xenografted mice were injected with the respective radiopeptide (5 MBq, 0.5 nmol/mouse, 100 µL 0.9% NaCl containing 0.05% BSA) and sacrificed at 4 h and 24 h after injection. […] The tissues and organs of interest were collected, weighed and counted for activity using a γ-counter (Wallac Wizard 1480, PerkinElmer). […] The results were presented as the average ± SD of n = 3 mice. The time-activity curves were determined for the uptake of [^177Lu]Lu-DOTA-AE105 and [^177Lu]Lu-uPAR-11 in the blood, HEK-uPAR xenografts, kidneys and liver based on non-decay corrected biodistribution data. For the blood, the initial uptake (t = 0) was set as 50% IA/g assuming a blood volume of 2 mL for CD1 nude mice. The initial uptake value (t = 0) for all other organs and tissues was set as 0% IA/g. […] The area under the curves over 48 h after injection (AUC0h→48 h) was calculated using GraphPad Prism software (version 10.1.1). Statistical analyses were performed by applying a one-way ANOVA test with a Dunnet’s multiple comparison post‐test to compare the data of the new radiopeptides with those of [^177Lu]Lu-DOTA-AE105 and a Tukey’s multiple comparisons post‐test to compare the novel radiopeptides among them. A p-value of < 0.05 was considered a statistically significant difference using GraphPad Prism software (version 10.1.1).

physchem = type: physicochemical; conditions: pH 7.4
Experimental: The ^177Lu-labeled peptides (50 MBq/nmol) were incubated in mouse or human blood plasma (10 MBq/200 µL) over an incubation period of 24 h at 37 °C. Aliquots and control samples of the radiopeptides diluted in saline were analyzed after 1 h, 4 h and 24 h using thin layer chromatography (TLC) as previously reported (Supplementary Material). The distribution coefficients (logD values) of the ^177Lu-labeled peptides (50 MBq/nmol) were determined using a shake-flask method according to a previously published procedure (Supplementary Material). Methods: The radiopeptides (50 MBq/nmol) were diluted in phosphate buffered saline (PBS) pH 7.4 to obtain an activity concentration of 10 MBq/500 µL. A sample of this radiopeptide solution (~0.5 MBq, 25 µL, 0.01 nmol) was added to a mixture of PBS pH 7.4 (1475 µL) and n-octanol (1500 µL). The vials were vortexed vigorously for 1 min followed by centrifugation (560 rcf, 25°C, 6 min) for phase separation. Aliquots were taken from each phase and measured in a γ-counter (Wallac Wizard 1480, PerkinElmer). The distribution coefficients were calculated as the logarithmic value of the ratio of counts per minute (cpm) measured in the n-octanol phase relative to the cpm measured in the PBS phase. The results were listed as average ± SD of the data obtained from 3 independent experiments, each performed with five replicates.

in vivo = conditions: CD1 nude, mouse, 0.5 nmol/mouse, total radioactivity
Experimental: as §1

human uPAR = molecular target: T1, human uPAR (Homo sapiens, UniProt Q03405); assay: uPAR-binding affinity, saturation binding on HEK-uPAR cells; conditions: 4 °C
T1 construct: host or cells: HEK cells transfected with human uPAR (HEK-uPAR)
Experimental: To determine the uPAR-binding affinity of the radiopeptides, saturation binding experiments were performed according to a previously published procedure using HEK-uPAR cells in 48-well plates (Supplementary Material). The assay was performed on ice (at 4 °C) to prevent target internalization upon binding of the radiopeptides. The cells were incubated with the radiopeptides in the presence or absence of excess AE105 (40 µM) together with the respective radiopeptides at concentrations ranging between 1 nM and 1600 nM. After removal of the supernatant, the HEK-uPAR cells were rinsed and lysed to be measured using a γ-counter (Wallac Wizard 1480, PerkinElmer). The KD values were determined by plotting the specific binding (values of cell samples incubated without AE105 minus the respective values of samples incubated with AE105) against the molar concentration of the added peptide. A nonlinear regression analysis was performed using GraphPad Prism software (version 10.1.1). The results are reported as average of KD values ± SD of n = 3 independent experiments. Methods: HEK-uPAR cells were seeded in poly-D-lysine-coated 48-well plates (0.25 × 10^6 in 0.5 mL per well) using DMEM culture medium with supplements. The cells were incubated at 37 °C and 5% CO2 overnight to allow adhesion and growth. The well plates with HEK-uPAR cells were placed on ice for the entire experiment to prevent internalization of the radiopeptides. After removal of the medium, the HEK-uPAR cells were rinsed with cold PBS (0.5 mL, pH 7.4) followed by the addition of DMEM culture medium without supplements (450 µL/well) in the presence or absence of AE105 (final concentration 40 µM) as a receptor blocking agent. The cells were incubated for 30 min on ice. The respective radiopeptides (5 MBq/nmol) were diluted in PBS at peptide concentrations 10‒16000 nM. A volume of 50 µL from each dilution was added to each well to obtain peptide concentrations in the range of […]. The assay was performed at 4 °C on ice, to prevent internalization of the radiopeptides. The radiopeptides were incubated on cells for 1 h on a shaker before rinsing twice with PBS (0.5 mL, pH 7.4). Increasing ligand concentrations were used to approximate saturation of the binding sites (Bmax value) at equilibrium. Ligand depletion effects of the ligand concentration in the supernatant of the cell samples were not taken into account. The cells were lysed using an aqueous NaOH solution (1 M, 600 µL) and the lysates were transferred to radioimmunoassay tubes for counting the activity in a γ-counter (Wallac Wizard 1480, PerkinElmer). The KD values were determined by plotting the specific binding (total binding minus unspecific binding) against the molar concentration of the added radiopeptide using GraphPad Prism software (version 10.1.1). The results were then expressed as average ± SD of n = 3 independent experiments.

T1 sequence (Q03405 23-335): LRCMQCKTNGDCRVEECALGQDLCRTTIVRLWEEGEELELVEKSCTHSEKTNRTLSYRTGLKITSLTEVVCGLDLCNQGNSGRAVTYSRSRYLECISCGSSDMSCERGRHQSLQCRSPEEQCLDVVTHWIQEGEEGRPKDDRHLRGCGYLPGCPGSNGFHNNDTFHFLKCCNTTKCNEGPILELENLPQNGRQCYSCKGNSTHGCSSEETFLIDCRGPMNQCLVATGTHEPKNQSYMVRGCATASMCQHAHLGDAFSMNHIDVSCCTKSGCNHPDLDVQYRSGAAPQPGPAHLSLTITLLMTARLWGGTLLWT

Row | Xgrft-to-liver ratio [1] | logD (physchem) | tissue uptake at 4 h (in vivo; Blood uptake) | tissue uptake at 24 h (in vivo; Blood uptake) | tissue uptake at 4 h (in vivo; Bone uptake) | tissue uptake at 24 h (in vivo; Bone uptake) | tissue uptake at 4 h (in vivo; Brain uptake) | tissue uptake at 24 h (in vivo; Brain uptake) | tissue uptake at 4 h (in vivo; HEK-uPAR xenograft uptake) | tissue uptake at 24 h (in vivo; HEK-uPAR xenograft uptake) | tissue uptake at 4 h (in vivo; Heart uptake) | tissue uptake at 24 h (in vivo; Heart uptake) | tissue uptake at 4 h (in vivo; Intestines uptake) | tissue uptake at 24 h (in vivo; Intestines uptake) | tissue uptake at 4 h (in vivo; Kidneys uptake) | tissue uptake at 24 h (in vivo; Kidneys uptake) | tissue uptake at 4 h (in vivo; Liver uptake) | tissue uptake at 24 h (in vivo; Liver uptake) | tissue uptake at 4 h (in vivo; Lung uptake) | tissue uptake at 24 h (in vivo; Lung uptake) | SMILES | also measured
1 | 1.3 ± 0.1 | 0.96 ± 0.15 | 12 ± 1 %ID/g | 3.4 ± 1 %ID/g | 1.4 ± 0.1 %ID/g | 0.78 ± 0.15 %ID/g | 0.24 ± 0.01 %ID/g | 0.1 ± 0.03 %ID/g | 6 ± 0.2 %ID/g | 5.7 ± 0.7 %ID/g | 4 ± 0.3 %ID/g | 1.6 ± 0.2 %ID/g | 1.5 ± 0.1 %ID/g | 0.76 ± 0.12 %ID/g | 3.9 ± 0.1 %ID/g | 4.3 ± 0.3 %ID/g | 5.3 ± 0.3 %ID/g | 4.2 ± 0.3 %ID/g | 7.2 ± 1.3 %ID/g | 2.6 ± 0.6 %ID/g | Cc1ccc(CCCC(=O)NCCCCCCCC(=O)NCCCC[C@H](NC(=O)CN2CCN(CC(=O)O)CCN(CC(=O)O)CCN(CC(=O)O)CC2)C(=O)N[C@@H](CC(=O)O)C(=O)N[C@@H](CC2CCCCC2)C(=O)N[C@@H](Cc2ccccc2)C(=O)N[C@H](CO)C(=O)N[C@H](CCCNC(=N)N)C(=O)N[C@@H](Cc2ccc(O)cc2)C(=O)N[C@@H](CC(C)C)C(=O)N[C@@H](Cc2c[nH]c3ccccc23)C(=O)N[C@@H](CO)C(N)=O)cc1 [[^177Lu]Lu-uPAR-12, metal not drawn] | tissue uptake at 4 h (in vivo; Muscle uptake): 1.2 ± 0.1 %ID/g; tissue uptake at 24 h (in vivo; Muscle uptake): 0.6 ± 0.22 %ID/g; tissue uptake at 4 h (in vivo; Pancreas uptake): 1.4 ± 0.2 %ID/g; tissue uptake at 24 h (in vivo; Pancreas uptake): 0.79 ± 0.24 %ID/g; tissue uptake at 4 h (in vivo; Salivary glands uptake): 2.7 ± 0.2 %ID/g; tissue uptake at 24 h (in vivo; Salivary glands uptake): 1.4 ± 0.2 %ID/g; tissue uptake at 4 h (in vivo; Spleen uptake): 1.9 ± 0.1 %ID/g; tissue uptake at 24 h (in vivo; Spleen uptake): 2 ± 0.6 %ID/g; tissue uptake at 4 h (in vivo; Stomach uptake): 1.4 ± 0.1 %ID/g; tissue uptake at 24 h (in vivo; Stomach uptake): 0.52 ± 0.16 %ID/g; Kd (human uPAR): 38 ± 9 nM
2 | 7.4 ± 1.0 | -0.13 ± 0.08 | 4.5 ± 0.2 %ID/g | 0.06 ± 0.01 %ID/g | 0.66 ± 0.09 %ID/g | 0.19 ± 0.03 %ID/g | 0.1 ± 0.01 %ID/g | < 0.03 %ID/g | 9 ± 0.5 %ID/g | 3.4 ± 0.3 %ID/g | 1.7 ± 0.1 %ID/g | 0.15 ± 0.01 %ID/g | 0.81 ± 0.04 %ID/g | 0.21 ± 0.03 %ID/g | 4 ± 0.3 %ID/g | 2 ± 0.3 %ID/g | 2 ± 0.2 %ID/g | 0.47 ± 0.05 %ID/g | 3 ± 0.6 %ID/g | 0.3 ± 0.02 %ID/g | Cc1ccc(CCCC(=O)NCCOCCOCCOCCOCCC(=O)NC[C@H](NC(=O)CN2CCN(CC(=O)O)CCN(CC(=O)O)CCN(CC(=O)O)CC2)C(=O)N[C@@H](CC(=O)O)C(=O)N[C@@H](CC2CCCCC2)C(=O)N[C@@H](Cc2ccccc2)C(=O)N[C@H](CO)C(=O)N[C@H](CCCNC(=N)N)C(=O)N[C@@H](Cc2ccc(O)cc2)C(=O)N[C@@H](CC(C)C)C(=O)N[C@@H](Cc2c[nH]c3ccccc23)C(=O)N[C@@H](CO)C(N)=O)cc1 [[^177Lu]Lu-uPAR-14, metal not drawn] | tissue uptake at 4 h (in vivo; Muscle uptake): 0.51 ± 0.02 %ID/g; tissue uptake at 24 h (in vivo; Muscle uptake): 0.05 ± 0.01 %ID/g; tissue uptake at 4 h (in vivo; Pancreas uptake): 0.68 ± 0.03 %ID/g; tissue uptake at 24 h (in vivo; Pancreas uptake): 0.12 ± 0.01 %ID/g; tissue uptake at 4 h (in vivo; Salivary glands uptake): 1.1 ± 0.1 %ID/g; tissue uptake at 24 h (in vivo; Salivary glands uptake): 0.26 ± 0.03 %ID/g; tissue uptake at 4 h (in vivo; Spleen uptake): 0.99 ± 0.08 %ID/g; tissue uptake at 24 h (in vivo; Spleen uptake): 0.54 ± 0.11 %ID/g; tissue uptake at 4 h (in vivo; Stomach uptake): 0.69 ± 0.13 %ID/g; tissue uptake at 24 h (in vivo; Stomach uptake): 0.16 ± 0.03 %ID/g; Kd (human uPAR): 37 ± 7 nM
